The values that follow come from patent publication US20240116945A1, “EXATECAN-DERIVED TOPOISOMERASE-1 INHIBITORS PHARMACEUTICAL COMPOSITIONS, AND USES THEREOF” (Merck Sharp & Dohme LLC, priority 2022, published 2024).

The subject of one experiment is Jeko-1 cells. The experiment in a line: CellTiter-Glo 2.0 Cytotoxicity Assay. Format: cell-based. The conditions noted are these: Homo sapiens, JeKo-1, read-out: Jeko-1 EC50 (nM), Jeko-1 cells, 3000 cells/well; compounds added Day 1; CellTiter-Glo 2.0 luminescence read on Day 4 or 5. As for the experimental part:
Reaction progress and synthetic intermediate analysis were assessed by LCMS (UV detection with ESI, APCI, or other mass detection) when applicable using a MeCN/water gradient with either TFA, formic acid, or NH4HCO3 modifier. Silica gel and reverse-phase flash column chromatography were conducted with commercially available pre-packed columns. Reverse-phase preparative HPLC purification was performed on preparative HPLC instruments with UV and MS detection using a MeCN/water gradient with either TFA, formic acid, or NH4OH modifier. ^1H NMR spectra were collected at room temperature, and chemical shifts are reported in ppm relative to the residual proteo-solvent signals, and multiplicities, coupling constants (where applicable), and signal integrations are listed parenthetically. Unless otherwise noted, all EC50 data presented in tables refers to the CellTiter-Glo® 2.0 Cytotoxicity Assay that is described in the Biological Assay section.
CellTiter-Glo® 2.0 Cytotoxicity Assay
Step 1: Seed 384-Well Plates for Assay (45 μL Per Well) on Day 0
Jeko-1 cells were quickly thawed in a cryo-vial by incubating them in a 37° C. water bath for <1 min until there is just a small bit of ice left in the vial. The vial was promptly removed and wiped down with 70% ethanol. The cells were transferred from the vial to a sterile centrifuge tube containing 8 mL of pre-warmed cell culture medium. The vial was flushed with an additional 1 mL of medium to ensure complete transfer of cells to the centrifuge tube. The cells were then centrifuged at 150×g for 5 minutes. The supernatant was aspirated, and the cell pellet was resuspended in 10-20 mL cell culture medium. Cells were counted using Vi-cell and prepared 6.6×10^4 cells/ml, 3000 cells/45 μL per well. Then added 45 μL/well of cells into Corning® 384-well Low Flange White Flat Bottom Polystyrene TC-treated Microplates (Corning, Cat #3570) using Standard Cassette Combi (if needed, dispense 1 dummy plate at 20 μL to help normalize Combi, using medium speed). The plates were spun down at 150×g for 30 seconds.
Step 2: Add Compounds on Day 1
The compound plates and reference compound stock were taken out and allowed to thaw at RT. The tubes were centrifuged at 2000×g for 30 seconds. The 10× Intermediate assay plates (Greiner plate, Cat #781280) were prepared using an Echo liquid handler. Proper buffer (HBSS (Gibco, Cat #14025-092)+10 mM HEPES (Gibco, Cat #15630-080)+0.1% BSA (Sigma, Cat #A9576)) were used to make serial dilutions. Media (no cells) was used for Max_E. Compound (5 μL of 10×) was transferred from intermediate plate to assay plate using a Bravo liquid handler using a very slow speed so the cell monolayer wasn't disturbed. The plates were spun down at 150×g for 30 seconds.
Step 3: CellTiter-Glo 2.0 Assay (Promega, Cat #G9242) on Day 4 or 5 (CellTiter-Glo Kit Stored at −70° C.)
The CellTiter-Glo® 2.0 Reagent was thawed at 4° C. overnight, taking care not to expose the reagent to temperatures above 25° C.). The kit was equilibrated to RT for approximately 30 minutes. CellTiter-Glo® 2.0 Reagent (20 μl) was added to 50 μl of medium containing cells using Standard Cassette Combi. The contents were mixed for 2-3 minutes on an orbital shaker to induce cell lysis. The plates were spun down at 150×g for 30 seconds. The plates were allowed to incubate at RT for 5 minutes to stabilize the luminescent signal.
Illustrative compounds of the present disclosure were tested in the above assay in Example 15, and results are provided in the Table 9 below: […]
`CC[C@@]1(O)C(=O)OCc2c1cc1n(c2=O)Cc2c-1nc1cc(F)c(C)c3c1c2[C@@H](NC(=O)[C@H](O)CCO)CC3` (single isomer, unassigned) [Compound 1]: the EC50 worked out at 1.4 nM.

For `CC[C@@]1(O)C(=O)OCc2c1cc1n(c2=O)Cc2c-1nc1cc(F)c(C)c3c1c2[C@@H](NC(=O)C(F)(F)C(C)O)CC3` (single isomer, unassigned) [Compound 7], the EC50 was 1.7 nM.

Regarding `CC[C@@]1(O)C(=O)OCc2c1cc1n(c2=O)Cc2c-1nc1cc(F)c(C)c3c1c2[C@@H](NC(=O)C(CO)C(F)(F)F)CC3` (single isomer, unassigned) [Compound 10], the EC50 is 4.4 nM.

Take `CC[C@@]1(O)C(=O)OCc2c1cc1n(c2=O)Cc2c-1nc1cc(F)c(C)c3c1c2[C@@H](NC(=O)C(N)C(F)(F)F)CC3` (single isomer, unassigned) [Compound 14]: the EC50 stood at 2.8 nM.

Turning to `CC[C@@]1(O)C(=O)OCc2c1cc1n(c2=O)Cc2c-1nc1cc(F)c(C)c3c1c2[C@@H](NC(=O)C(C)(N)C(F)(F)F)CC3` (single isomer, unassigned) [Compound 16], the EC50 turned out to be 1.6 nM.

Consider `CC[C@@]1(O)C(=O)OCc2c1cc1n(c2=O)Cc2c-1nc1cc(F)c(C)c3c1c2[C@@H](NC(=O)C(CO)C1CC1)CC3` (single isomer, unassigned) [Compound 22], for which the EC50 was determined as 4.3 nM.

On to `CC[C@@]1(O)C(=O)OCc2c1cc1n(c2=O)Cc2c-1nc1cc(F)c(C)c3c1c2[C@@H](NC(=O)C(C)(F)CO)CC3` (single isomer, unassigned) [Compound 36], for which the EC50 was 2.4 nM.

In the case of `CC[C@@]1(O)C(=O)OCc2c1cc1n(c2=O)Cc2c-1nc1cc(F)c(C)c3c1c2[C@@H](NC(=O)C(C)(CCO)C(F)F)CC3` (single isomer, unassigned) [Compound 39], the EC50 came to 4.9 nM.

As to `CC[C@@]1(O)C(=O)OCc2c1cc1n(c2=O)Cc2c-1nc1cc(F)c(C)c3c1c2[C@@H](NC(=O)[C@@H](O)CCO)CC3` [Compound 2], the EC50 stood at 6.6 nM.

In the case of `CC[C@@]1(O)C(=O)OCc2c1cc1n(c2=O)Cc2c-1nc1cc(F)c(C)c3c1c2[C@@H](NC(=O)[C@H](O)C(C)(C)CO)CC3` [Compound 3], the EC50 worked out at 4.1 nM.

As to `CC[C@@]1(O)C(=O)OCc2c1cc1n(c2=O)Cc2c-1nc1cc(F)c(C)c3c1c2[C@@H](NC(=O)C(C)(CO)CO)CC3` [Compound 6], the EC50 stood at 2.9 nM.

Take `CC[C@@]1(O)C(=O)OCc2c1cc1n(c2=O)Cc2c-1nc1cc(F)c(C)c3c1c2[C@@H](NC(=O)C(F)(F)CO)CC3` [Compound 9]: the EC50 amounted to 4 nM.

For the compound `CC[C@@]1(O)C(=O)OCc2c1cc1n(c2=O)Cc2c-1nc1cc(F)c(C)c3c1c2[C@@H](NC(=O)C(C)(N)C(F)F)CC3` (some centres unmarked) [Compound 13], the EC50 is 4.2 nM.

With `CC[C@@]1(O)C(=O)OCc2c1cc1n(c2=O)Cc2c-1nc1cc(F)c(C)c3c1c2[C@@H](NC(=O)C(C)(N)C1CC1)CC3` (some centres unmarked) [Compound 20], the EC50 came to 5.2 nM.

As to `CC[C@@]1(O)C(=O)OCc2c1cc1n(c2=O)Cc2c-1nc1cc(F)c(C)c3c1c2[C@@H](NC(=O)[C@H](O)CCOC(F)F)CC3` [Compound 21, (R)-4-(difluoromethoxy)-N-((1S,9S)-9-ethyl-5-fluoro-9-hydroxy-4-methyl-10,13-dioxo-2,3,9,10,13,15-hexahydro-1H,12H-benzo[de]pyrano[3′,4′: 6,7]indolizino[1,2-b]quinolin-1-yl)-2-hydroxybutanamide], the EC50 turned out to be 3.6 nM.

The experiment is the same for the next values; noted with them: Homo sapiens; Jeko-1 cells, 3000 cells/well; compounds added Day 1; CellTiter-Glo 2.0 luminescence read on Day 4 or 5; read-out: Jeko-1 EC50.
On to `CC[C@@]1(O)C(=O)OCc2c1cc1n(c2=O)Cc2c-1nc1cc(F)c(C)c3c1c2[C@@H](NC(=O)C(C)(C)CO)CC3` [Compound 24, N-((1S,9S)-9-ethyl-5-fluoro-9-hydroxy-4-methyl-10,13-dioxo-2,3,9,10,13,15-hexahydro-1H,12H-benzo[de]pyrano[3′,4′: 6,7]indolizino[1,2-b]quinolin-1-yl)-3-hydroxy-2,2-dimethylpropanamide], for which the EC50 is 1.8 nM.

As to `CC[C@@]1(O)C(=O)OCc2c1cc1n(c2=O)Cc2c-1nc1cc(F)c(C)c3c1c2[C@@H](NC(=O)C[C@H](C)O)CC3` [Compound 25], the EC50 came out at 2.6 nM.

In the case of `CC[C@@]1(O)C(=O)OCc2c1cc1n(c2=O)Cc2c-1nc1cc(F)c(C)c3c1c2[C@@H](NC(=O)C[C@@H](C)O)CC3` [Compound 26], the EC50 came out at 2.9 nM.

With `CC[C@@]1(O)C(=O)OCc2c1cc1n(c2=O)Cc2c-1nc1cc(F)c(C)c3c1c2[C@@H](NC(=O)CCO)CC3` [Compound 27], the EC50 was determined as 3.1 nM.

Still in this experiment, the particulars now being: read-out: Jeko-1 EC50; Jeko-1 cells, 3000 cells/well; compounds added Day 1; CellTiter-Glo 2.0 luminescence read on Day 4 or 5.
For `CC[C@@]1(O)C(=O)OCc2c1cc1n(c2=O)Cc2c-1nc1cc(F)c(C)c3c1c2[C@@H](NC(=O)C(C)(O)CO)CC3` (single isomer, unassigned) [Compound 4], the EC50 worked out at 1.2 nM.

Turning to `CC[C@@]1(O)C(=O)OCc2c1cc1n(c2=O)Cc2c-1nc1cc(F)c(C)c3c1c2[C@@H](NC(=O)C(C)(O)CO)CC3` (single isomer, unassigned) [Compound 5], the EC50 came out at 6.7 nM.

With `CC[C@@]1(O)C(=O)OCc2c1cc1n(c2=O)Cc2c-1nc1cc(F)c(C)c3c1c2[C@@H](NC(=O)C(F)(F)C(C)O)CC3` (single isomer, unassigned) [Compound 8], the EC50 came to 1.6 nM.

`CC[C@@]1(O)C(=O)OCc2c1cc1n(c2=O)Cc2c-1nc1cc(F)c(C)c3c1c2[C@@H](NC(=O)C(CO)C(F)(F)F)CC3` (single isomer, unassigned) [Compound 11]: the EC50 came out at 5.3 nM.

For the compound `CC[C@@]1(O)C(=O)OCc2c1cc1n(c2=O)Cc2c-1nc1cc(F)c(C)c3c1c2[C@@H](NC(=O)C(N)C(F)(F)F)CC3` (single isomer, unassigned) [Compound 15], the EC50 was determined as 2.9 nM.

As to `CC[C@@]1(O)C(=O)OCc2c1cc1n(c2=O)Cc2c-1nc1cc(F)c(C)c3c1c2[C@@H](NC(=O)C(C)(N)C(F)(F)F)CC3` (single isomer, unassigned) [Compound 17], the EC50 amounted to 2 nM.

With `CC[C@@]1(O)C(=O)OCc2c1cc1n(c2=O)Cc2c-1nc1cc(F)c(C)c3c1c2[C@@H](NC(=O)C(N)(Cc1ccccc1)C(F)(F)F)CC3` (single isomer, unassigned) [Compound 18], the EC50 was 44 nM.

`CC[C@@]1(O)C(=O)OCc2c1cc1n(c2=O)Cc2c-1nc1cc(F)c(C)c3c1c2[C@@H](NC(=O)C(N)(Cc1ccccc1)C(F)(F)F)CC3` (single isomer, unassigned) [Compound 19]: the EC50 came to 5.7 nM.

Consider `CC[C@@]1(O)C(=O)OCc2c1cc1n(c2=O)Cc2c-1nc1cc(F)c(C)c3c1c2[C@@H](NC(=O)C(CO)C1CC1)CC3` (single isomer, unassigned) [Compound 23], for which the EC50 turned out to be 4.6 nM.

For `CC[C@@]1(O)C(=O)OCc2c1cc1n(c2=O)Cc2c-1nc1cc(F)c(C)c3c1c2[C@@H](NC(=O)C(F)CO)CC3` (single isomer, unassigned) [Compound 34], the EC50 is 4.3 nM.

For `CC[C@@]1(O)C(=O)OCc2c1cc1n(c2=O)Cc2c-1nc1cc(F)c(C)c3c1c2[C@@H](NC(=O)C(F)CO)CC3` (single isomer, unassigned) [Compound 35], the EC50 stood at 1.5 nM.

As to `CC[C@@]1(O)C(=O)OCc2c1cc1n(c2=O)Cc2c-1nc1cc(F)c(C)c3c1c2[C@@H](NC(=O)C(C)(F)CO)CC3` (single isomer, unassigned) [Compound 37], the EC50 turned out to be 3.1 nM.

As to `CC[C@@]1(O)C(=O)OCc2c1cc1n(c2=O)Cc2c-1nc1cc(F)c(C)c3c1c2[C@@H](NC(=O)C(C)(CCO)C(F)F)CC3` (single isomer, unassigned) [Compound 40], the EC50 was determined as 4.6 nM.
